Source: patent US11440906B2, “Biguanide derivatives and their rearrangement products for use in the treatment of cancer” (CENTRE NATIONAL DE LA RECHERCHE SCIENTIFIQUE, priority 2017, dated 2022)
Read-outs that look alike come from different tables or passages of the source.

System: A375 Sensitive cells
Experiment: Viability test, trypan blue exclusion, A375 Sensitive cells
Type: cell-based, human
Settings: Homo sapiens, A-375, viable cells as percentage of DMSO control
Source text: Different melanoma cell lines were purchased from the American Tissue Culture Collection: A375 and WM9 cells are mutated on B-Raf, CDKN2A and PTEN proteins; SKmel28 cells are mutated on B-Raf and P53 proteins; 1205Lu cells are mutated on B-Raf and PTEN proteins; G-361 cells are mutated on B-Raf and CDKN2A proteins; C8161 cells are mutated on B-Raf and K-Ras proteins; WM3912 cells are mutated on B-Raf and CDKN2A proteins; MeWo cells are mutated on P53 and CDKN2A proteins; WM3918 presents no mutations on characteristic proteins.
For trypan blue staining, […] of cells (melanoma and normal human cells) were aseptically transferred to a 1.5 mL clear Eppendorf tube and incubated for 3 min at room temperature with an equal volume of 0.4% trypan blue solution. Viable cells were counted and the results are expressed as the percentage of the value of control cells. All the experiments are performed 3 times in triplicate.
A375 Sensitive cells were treated with different concentrations of the synthesized molecules (5.0 μM or 10 μM) for different times (24 hr or 48 hr) or with DMSO (Control) for 12 or 48 hr. At the end of the stimulation, viable cells were counted using the trypan blue dye exclusion method. The results are normalized as percentages compare to the control.
A375 Sensitive cells were treated with 5 μM of CRO15 for different times (2 hr, 4 hr, 6 hr, 8 hr, 12 hr, 24 hr or 48 hr) or with 5 μM of PLX4032 (B-Raf inhibitor) for 48 hr or with DMSO (Control) for 48 hr. At the end of stimulation, viable cells were counted using the trypan blue dye exclusion method. The results are normalized as percentages compare to the control and data means±SEM of three independent experiments performed in triplicate *p<0.05; **p<0.01; ***p<0.001.
A375 Sensitive cells were treated with different concentrations of CRO15 (0.5 μM, 2.5 μM, 5.0 μM, 7.5 μM, 50 μM) for 48 hr or with 5 μM of PLX4032 (B-Raf inhibitor) for 48 hr or with DMSO (Control) for 48 hr. At the end of the stimulation, viable cells were counted using the trypan blue dye exclusion method. The results are normalized as percentages compare to the control and data means±SEM of three independent experiments performed in triplicate *p<0.05; **p<0.01; ***p<0.001.
A375 sensitive and resistant melanoma cells were treated with 5 μM of CRO15 for 48 hr or with 5 μM of PLX4032 for 48 hr or with DMSO (Control). At 48 hours, viable cells were counted using the trypan blue dye exclusion method. The results are normalized as percentages compare to the control and data means±SEM of three independent experiments performed in triplicate *p<0.05; **p<0.01; ***p<0.001.

[1] = 24 h, read-out: Viab A375 5 μM/ 24 h
[2] = 48 h, read-out: Viab A375 5 μM/ 48 h
[3] = 24 h, read-out: Viab A375 10 μM/ 24 h
[4] = 48 h, read-out: Viab A375 10 μM/ 48 h

## Cc1nc(NC(=N)NC(=N)c2ccccc2)sc1C [MTF 303, N—(N-(4,5-dimethylthiazol-2-yl)carbamimidoyl)benzimidamide]
[1]
  viability at 5 µM: 85.6%
[2]
  viability at 5 µM: 44.2%
[3]
  viability at 10 µM: 66.1%
[4]
  viability at 10 µM: 39.1%

## N=C(NC(=N)C(Cl)(Cl)Cl)Nc1nc2ccccc2s1 [MTF 305, N—(N-(benzo[d]thiazol-2-yl)carbamimidoyl)-2,2,2-trichloroacetimidamide]
[1]
  viability at 5 µM: 11%
[2]
  viability at 5 µM: 20.7%
[3]
  viability at 10 µM: 5.5%
[4]
  viability at 10 µM: 4.7%

## CSc1ccccc1Nc1nc(N)nc(C(Cl)(Cl)Cl)n1 [MTF 316, N2-(2-(methylthio)phenyl)-6-(trichloromethyl)-1,3,5-triazine-2,4-diamine]
[1]
  viability at 5 µM: 124%
[2]
  viability at 5 µM: 69.6%
[3]
  viability at 10 µM: 104%
[4]
  viability at 10 µM: 48.2%

## CSc1ccccc1Nc1nc(N)nc(C(Cl)Cl)n1 [MTF 317, 6-(dichloromethyl)-N2-(2-(methylthio)phenyl)-1,3,5-triazine-2,4-diamine]
[1]
  viability at 5 µM: 106%
[2]
  viability at 5 µM: 58.7%
[3]
  viability at 10 µM: 109%
[4]
  viability at 10 µM: 70%

## COc1cccc(-c2nc(N)nc(Nc3ccccc3SSc3ccccc3Nc3nc(N)nc(-c4cccc(OC)c4)n3)n2)c1 [MTF 318]
[1]
  viability at 5 µM: 74.1%
[2]
  viability at 5 µM: 21.6%
[3]
  viability at 10 µM: 20.5%
[4]
  viability at 10 µM: 6.3%

## Nc1nc(Nc2ccccc2SSc2ccccc2Nc2nc(N)nc(-c3cccc(F)c3)n2)nc(-c2cccc(F)c2)n1 [MTF 320]
[1]
  viability at 5 µM: 18.3%
[2]
  viability at 5 µM: 11.5%
[3]
  viability at 10 µM: 10.8%
[4]
  viability at 10 µM: 8.5%

## Nc1nc(Nc2ccccc2SSc2ccccc2Nc2nc(N)nc(-c3ccccn3)n2)nc(-c2ccccn2)n1 [MTF 321, N2,N2′-(disulfanediylbis(2,1-phenylene))bis(6-(pyridin-2-yl)-1,3,5-triazine-2,4-diamine)]
[1]
  viability at 5 µM: 59.7%
[2]
  viability at 5 µM: 34.5%
[3]
  viability at 10 µM: 53.8%
[4]
  viability at 10 µM: 32.1%

## Nc1nc(Nc2ccccc2SSc2ccccc2Nc2nc(N)nc(-c3cccc(Cl)c3)n2)nc(-c2cccc(Cl)c2)n1 [MTF 322, N2,N2′-(disulfanediylbis(2,1-phenylene))bis(6-(3-chlorophenyl)-1,3,5-triazine-2,4-diamine)]
[1]
  viability at 5 µM: 57.4%
[2]
  viability at 5 µM: 12.1%
[3]
  viability at 10 µM: 26.9%
[4]
  viability at 10 µM: 5.7%

## Nc1nc(Nc2ccccc2SSc2ccccc2Nc2nc(N)nc(-c3cccc(Br)c3)n2)nc(-c2cccc(Br)c2)n1 [MTF 323, N2,N2′-(disulfanediylbis(2,1-phenylene))bis(6-(3-bromophenyl)-1,3,5-triazine-2,4-diamine)]
[1]
  viability at 5 µM: 34.6%
[2]
  viability at 5 µM: 23.5%
[3]
  viability at 10 µM: 47.4%
[4]
  viability at 10 µM: 8.3%

## COc1ccc(-c2nc(N)nc(Nc3ccccc3SSc3ccccc3Nc3nc(N)nc(-c4ccc(OC)cc4)n3)n2)cc1 [MTF 324, N2,N2′-(disulfanediylbis(2,1-phenylene))bis(6-(4-methoxyphenyl)-1,3,5-triazine-2,4-diamine)]
[1]
  viability at 5 µM: 44.1%
[2]
  viability at 5 µM: 13.3%
[3]
  viability at 10 µM: 12.9%
[4]
  viability at 10 µM: 8.2%

## N#Cc1cccc(-c2nc(N)nc(Nc3ccccc3SSc3ccccc3Nc3nc(N)nc(-c4cccc(C#N)c4)n3)n2)c1 [MTF 325, 3,3′-(((disulfanediylbis(2,1-phenylene))bis(azanediyl))bis(6-amino-1,3,5-triazine-4,2-diyl))dibenzonitrile]
[1]
  viability at 5 µM: 58.1%
[2]
  viability at 5 µM: 30.9%
[3]
  viability at 10 µM: 71%
[4]
  viability at 10 µM: 29.7%

## Nc1nc(Nc2ccccc2SSc2ccccc2Nc2nc(N)nc(-c3ccccc3)n2)nc(-c2ccccc2)n1 [MTF 326, N2,N2′-(disulfanediylbis(2,1-phenylene))bis(6-phenyl-1,3,5-triazine-2,4-diamine)]
[1]
  viability at 5 µM: 27.4%
[2]
  viability at 5 µM: 27.9%
[3]
  viability at 10 µM: 12.9%
[4]
  viability at 10 µM: 6.7%

## Nc1nc(Nc2ccccc2SSc2ccccc2Nc2nc(N)nc(-c3ccc(Cl)cc3)n2)nc(-c2ccc(Cl)cc2)n1 [MTF 327, N2,N2′-(disulfanediylbis(2,1-phenylene))bis(6-(4-chlorophenyl)-1,3,5-triazine-2,4-diamine)]
[1]
  viability at 5 µM: 19.4%
[2]
  viability at 5 µM: 14.5%
[3]
  viability at 10 µM: 23.7%
[4]
  viability at 10 µM: 14.5%

## Nc1nc(Nc2ccccc2SSc2ccccc2Nc2nc(N)nc(-c3ccc(I)cc3)n2)nc(-c2ccc(I)cc2)n1 [MTF 328, N2,N2′-(disulfanediylbis(2,1-phenylene))bis(6-(4-iodophenyl)-1,3,5-triazine-2,4-diamine)]
[1]
  viability at 5 µM: 50%
[2]
  viability at 5 µM: 9.4%
[3]
  viability at 10 µM: 27.8%
[4]
  viability at 10 µM: 3.4%

## Nc1nc(Nc2ccccc2SSc2ccccc2Nc2nc(N)nc(-c3ccncc3)n2)nc(-c2ccncc2)n1 [MTF 329, N2,N2′-(disulfanediylbis(2,1-phenylene))bis(6-(pyridin-4-yl)-1,3,5-triazine-2,4-diamine)]
[1]
  viability at 5 µM: 96.2%
[2]
  viability at 5 µM: 69.7%
[3]
  viability at 10 µM: 74.2%
[4]
  viability at 10 µM: 22.5%

## Nc1nc(Nc2ccccc2SSc2ccccc2Nc2nc(N)nc(-c3cccnc3)n2)nc(-c2cccnc2)n1 [MTF 330, N2,N2′-(disulfanediylbis(2,1-phenylene))bis(6-(pyridin-3-yl)-1,3,5-triazine-2,4-diamine)]
[1]
  viability at 5 µM: 123%
[2]
  viability at 5 µM: 73.9%
[3]
  viability at 10 µM: 60.1%
[4]
  viability at 10 µM: 41.6%

## Nc1nc(Nc2ccccc2O)nc(-c2cccc(Br)c2)n1 [MTF 331, 2-((4-amino-6-(3-bromophenyl)-1,3,5-triazin-2-yl)amino)phenol]
[1]
  viability at 5 µM: 104%
[2]
  viability at 5 µM: 82.9%
[3]
  viability at 10 µM: 151%
[4]
  viability at 10 µM: 77.4%

## Nc1nc(Nc2ccccc2O)nc(-c2cccc(Cl)c2)n1 [MTF 332, 2-((4-amino-6-(3-chlorophenyl)-1,3,5-triazin-2-yl)amino)phenol]
[1]
  viability at 5 µM: 122%
[2]
  viability at 5 µM: 87.6%
[3]
  viability at 10 µM: 104%
[4]
  viability at 10 µM: 65.4%

## Nc1nc(Cc2ccccc2)nc(Nc2ccccc2SSc2ccccc2Nc2nc(N)nc(Cc3ccccc3)n2)n1 [MTF 333]
[1]
  viability at 5 µM: 94.9%
[2]
  viability at 5 µM: 35.4%
[3]
  viability at 10 µM: 28.7%
[4]
  viability at 10 µM: 24.1%

## COc1cccc(C(=N)NC(=N)Nc2nc3ccccc3s2)c1 [MTF 342, N—(N-(benzo[d]thiazol-2-yl)carbamimidoyl)-3-methoxybenzimidamide]
[1]
  viability at 5 µM: 48.6%
[2]
  viability at 5 µM: 8.6%
[3]
  viability at 10 µM: 32.2%
[4]
  viability at 10 µM: 8.6%

## N=C(NC(=N)c1cccc(C(F)(F)F)c1)Nc1nc2ccccc2s1 [MTF 343, N—(N-(benzo[d]thiazol-2-yl)carbamimidoyl)-3-(trifluoromethyl)benzimidamide]
[1]
  viability at 5 µM: 67.7%
[2]
  viability at 5 µM: 52.9%
[3]
  viability at 10 µM: 34.8%
[4]
  viability at 10 µM: 24.1%

## CCOc1cccc(C(=N)NC(=N)Nc2nc3ccccc3s2)c1 [MTF 344, N—(N-(benzo[d]thiazol-2-yl)carbamimidoyl)-3-ethoxybenzimidamide]
[1]
  viability at 5 µM: 84.3%
[2]
  viability at 5 µM: 26.1%
[3]
  viability at 10 µM: 38.7%
[4]
  viability at 10 µM: 26.1%

## N=C(NC(=N)c1cnccn1)Nc1nc2ccccc2s1 [MTF 345, N—(N-(benzo[d]thiazol-2-yl)carbamimidoyl)pyrazine-2-carboximidamide]
[1]
  viability at 5 µM: 25.9%
[2]
  viability at 5 µM: 1.8%
[3]
  viability at 10 µM: 17.1%
[4]
  viability at 10 µM: 1%

## N=C(NC(=N)c1cccc(F)c1)Nc1nc2ccccc2s1 [MTF 346, N—(N-(benzo[d]thiazol-2-yl)carbamimidoyl)-3-fluorobenzimidamide]
[1]
  viability at 5 µM: 66.9%
[2]
  viability at 5 µM: 10.6%
[3]
  viability at 10 µM: 43.2%
[4]
  viability at 10 µM: 12.9%

## N#Cc1cccc(C(=N)NC(=N)Nc2nc3ccccc3s2)c1 [MTF 347, N—(N-(benzo[d]thiazol-2-yl)carbamimidoyl)-3-cyanobenzimidamide]
[1]
  viability at 5 µM: 26.9%
[2]
  viability at 5 µM: 6.6%
[3]
  viability at 10 µM: 27.6%
[4]
  viability at 10 µM: 6.8%
